# Molecular target: T1, full-length recombinant human NEK7 (Homo sapiens, UniProt Q8TDX7)
# T1 construct: full-length recombinant human NEK7; GST (N); purchased SignalChem NO9-10G; host or cells: Sf9 insect cells (baculovirus)
# Assay: NEK7 enzymatic assay
# Format: biochemical
# Conditions: recombinant human NEK7, casein substrate, radiolabelled ATP
# Description: Casein substrate (from bovine milk, hydrolyzed and partially dephosphorylated mixture of α, β and κ caseins, obtained from Sigma Aldrich, catalogue #C4765, diluted in distilled water to a final concentration of 1 mg/mL) and full-length recombinant human NEK7 (expressed by baculovirus in Sf9 insect cells using a N-terminal GST tag, obtained from SignalChem, catalogue #NO9-10G, 0.1 μg/μL) were mixed in assay buffer (20 mM Hepes pH 7.5, 10 mM MgCl2, 1 mM EGTA, 0.02% Brij35, 0.02 mg/ml BSA, 0.1 mM Na3VO4, 2 mM DTT, 1% DMSO). Compounds of interest (serial 3-fold dilution in DMSO from 10 μM to 0.5 nM) or vehicle (1% DMSO) were dispensed into the kinase reaction mixture by Acoustic technology (Echo550; nanoliter range). After incubation at room temperature for 20 minutes, the kinase reaction was initiated by addition of [^33P]-ATP (specific activity 10 μCi/μl) and the mixture was incubated at room temperature for 2 hours. The reaction was then stopped by spotting the reaction mixture on strips of phosphocellulose P81 paper. Following washing, the radioactivity of the P81 paper was measured and kinase activity data were expressed as the percent remaining kinase activity in test samples compared to vehicle reactions. IC50 values and curve fits were obtained using Prism (GraphPad Software).
# Casein substrate (from bovine milk, hydrolyzed and partially dephosphorylated mixture of α, β and κ caseins, obtained from Sigma Aldrich, catalogue #C4765, diluted in distilled water to a final concentration of 1 mg/mL, assay concentration 20 μM) and full-length recombinant human Nek7 (expressed by baculovirus in Sf9 insect cells using a N-terminal GST tag, obtained from SignalChem, catalogue #NO9-10G, 0.1 μg/μL, assay concentration 70 nM) were mixed in assay buffer (20 mM Hepes pH 7.5, 10 mM MgCl2, 1 mM EGTA, 0.02% Brij35, 0.02 mg/ml BSA, 0.1 mM […], 2 mM DTT, 1% DMSO). Compounds of interest (in DMSO, serial 3-fold dilution from 10 μM to 0.5 nM) or control (1% DMSO) were dispensed into the kinase reaction mixture by Acoustic technology (Echo550; nanoliter range). After incubation at room temperature for 20 minutes, the kinase reaction was initiated by addition of [^32P]-ATP (Specific activity 10 μCi/μl) and the mixture was incubated at room temperature for 2 hours. The reaction was then stopped by spotting the reaction mixture on strips of phosphocellulose P81 paper. Following washing, the radioactivity of the P81 paper was measured and kinase activity data were expressed as the percent remaining kinase activity in test samples compared to vehicle (dimethyl sulfoxide) reactions. IC50 values and curve fits were obtained using Prism (GraphPad Software).
# T1 sequence (Q8TDX7 whole entry): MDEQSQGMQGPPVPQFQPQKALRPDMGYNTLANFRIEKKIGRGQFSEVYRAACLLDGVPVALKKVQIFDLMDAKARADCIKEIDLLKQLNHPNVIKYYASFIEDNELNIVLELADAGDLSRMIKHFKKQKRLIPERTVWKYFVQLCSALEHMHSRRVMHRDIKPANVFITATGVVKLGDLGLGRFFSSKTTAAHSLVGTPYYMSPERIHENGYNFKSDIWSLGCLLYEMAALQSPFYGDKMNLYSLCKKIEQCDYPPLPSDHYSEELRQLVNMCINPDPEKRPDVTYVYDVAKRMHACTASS
row,SMILES,IC50 [nM]
1,"CN1C[C@@H]2CN(Cc3ccc(NC(=O)Nc4ccc(-c5cn(C6CC6)c6ncnc(N)c56)cc4F)cc3C(F)(F)F)C[C@@H]2C1 [Example I-5, 1-(4-(4-amino-7-cyclopropyl-7H-pyrrolo[2,3-d]pyrimidin-5-yl)-2-fluorophenyl)-3-(4-(((3aR,6aS)-5-methylhexahydropyrrolo[3,4-c]pyrrol-2(1H)-yl)methyl)-3-(trifluoromethyl)phenyl)urea]",100 to 500
2,"Cc1cc(NC(=O)Nc2ccc(-c3cn(C4CC4)c4ncnc(N)c34)cc2F)ccc1CN1CCN(C)CC1 [Example I-39, 1-(4-(4-amino-7-cyclopropyl-7H-pyrrolo[2,3-d]pyrimidin-5-yl)-2-fluorophenyl)-3-(3-methyl-4-((4-methylpiperazin-1-yl)methyl)phenyl)urea]",> 2000
3,"CN1CCN(Cc2ccc(NC(=O)Nc3ccc(-c4cn(C5CC5)c5ncnc(N)c45)cc3F)cc2C(F)(F)F)CC12CC2 [Example I-73, 1-(4-(4-amino-7-cyclopropyl-7H-pyrrolo[2,3-d]pyrimidin-5-yl)-2-fluorophenyl)-3-(4-((4-methyl-4,7-diazaspiro[2.5]octan-7-yl)methyl)-3-(trifluoromethyl)phenyl)urea]",500 to 2000
4,"CC(C)n1cc(-c2ccc(NC(=O)Nc3ccc(CN4CCN(C)CC4)c(C(F)(F)F)c3)c(F)c2)c2c(N)ncnc21 [Example I-105, 1-(4-(4-amino-7-isopropyl-7H-pyrrolo[2,3-d]pyrimidin-5-yl)-2-fluorophenyl)-3-(4-((4-methylpiperazin-1-yl)methyl)-3-(trifluoromethyl)phenyl)urea]",< 100
5,"CCN1CCN(Cc2ccc(NC(=O)Nc3ccc(-c4cn(C5CC5)c5ncnc(N)c45)cc3Cl)cc2C(F)(F)F)CC1 [Example I-55, 1-(4-(4-amino-7-cyclopropyl-7H-pyrrolo[2,3-d]pyrimidin-5-yl)-2-chlorophenyl)-3-(4-((4-ethylpiperazin-1-yl)methyl)-3-(trifluoromethyl)phenyl)urea]",100 to 500
6,"CN1CCC(Cc2ccc(NC(=O)Nc3ccc(-c4cn(C5CC5)c5ncnc(N)c45)cc3F)cc2C(F)(F)F)CC1 [Example I-11, 1-(4-(4-amino-7-cyclopropyl-7H-pyrrolo[2,3-d]pyrimidin-5-yl)-2-fluorophenyl)-3-(4-((1-methylpiperidin-4-yl)methyl)-3-(trifluoromethyl)phenyl)urea]",> 2000
7,"CN1CCN(Cc2ccc(NC(=O)Nc3ccc(-c4cn(CCC(=O)O)c5ncnc(N)c45)cc3F)cc2C(F)(F)F)CC1 [Example I-106, 3-(4-amino-5-(3-fluoro-4-(3-(4-((4-methylpiperazin-1-yl)methyl)-3-(trifluoromethyl)phenyl)ureido)phenyl)-7H-pyrrolo[2,3-d]pyrimidin-7-yl)propanoic acid]",< 100
8,"Cc1cc(NC(=O)Nc2ccc(-c3nn(C4COC4)c4ncnc(N)c34)cc2)ccc1N1CCOCC1 [Example I-23, 1-(4-(4-amino-1-(oxetan-3-yl)-1H-pyrazolo[3,4-d]pyrimidin-3-yl)phenyl)-3-(3-methyl-4-morpholinophenyl)urea]",> 2000
9,"CN1CCC(Oc2ccc(NC(=O)Nc3ccc(-c4cn(C5CC5)c5ncnc(N)c45)cc3F)cc2C(F)(F)F)C(F)C1 (single isomer, unassigned) [Example I-89, 1-(4-(4-amino-7-cyclopropyl-7H-pyrrolo[2,3-d]pyrimidin-5-yl)-2-fluorophenyl)-3-(4-((3-fluoro-1-methylpiperidin-4-yl)oxy)-3-(trifluoromethyl)phenyl)urea]",100 to 500
10,"Nc1ncnc2c1c(-c1ccc(NC(=O)Nc3ccc(CN4CCN(S(=O)(=O)C5CC5)CC4)c(C(F)(F)F)c3)c(F)c1)cn2C1CC1 [Example I-97, 1-(4-(4-amino-7-cyclopropyl-7H-pyrrolo[2,3-d]pyrimidin-5-yl)-2-fluorophenyl)-3-(4-((4-(cyclopropylsulfonyl)piperazin-1-yl)methyl)-3-(trifluoromethyl)phenyl)urea]",500 to 2000
11,"CCN1CCN(Cc2ccc(NC(=O)Nc3ccc(-c4cn(C5CC5)c5ncnc(N)c45)cc3F)cc2C(F)(F)F)CC1 [Example I-41, 1-(4-(4-amino-7-cyclopropyl-7H-pyrrolo[2,3-d]pyrimidin-5-yl)-2-fluorophenyl)-3-(4-((4-ethylpiperazin-1-yl)methyl)-3-(trifluoromethyl)phenyl)urea]",< 100
12,CN(C)C1CCN(Cc2ccc(NC(=O)Nc3ccc(-c4cn(C5CC5)c5ncnc(N)c45)cc3F)cc2C(F)(F)F)CC1 [Example I-69],< 100
13,"CN1CC2CCC1CN2Cc1ccc(NC(=O)Nc2ccc(-c3cn(C4CC4)c4ncnc(N)c34)cc2F)cc1C(F)(F)F (stereo not shown) [Example I-9, 1-(4-(4-amino-7-cyclopropyl-7H-pyrrolo[2,3-d]pyrimidin-5-yl)-2-fluorophenyl)-3-(4-((5-methyl-2,5-diazabicyclo[2.2.2]octan-2-yl)methyl)-3-(trifluoromethyl)phenyl)urea]",100 to 500
14,"CN1CCN(Cc2c(F)cc(NC(=O)Nc3ccc(-c4cn(C5CC5)c5ncnc(N)c45)cc3F)cc2C(F)(F)F)CC1 [Example I-12, 1-(4-(4-amino-7-cyclopropyl-7H-pyrrolo[2,3-d]pyrimidin-5-yl)-2-fluorophenyl)-3-(3-fluoro-4-((4-methylpiperazin-1-yl)methyl)-5-(trifluoromethyl)phenyl)urea]",< 100
15,"CN1CCN(Cc2ccc(NC(=O)Nc3ccc(-c4nn(CCCCCO)c5ncnc(N)c45)cc3F)cc2C(F)(F)F)CC1 [Example I-103, 1-(4-(4-amino-1-(5-hydroxypentyl)-1H-pyrazolo[3,4-d]pyrimidin-3-yl)-2-fluorophenyl)-3-(4-((4-methylpiperazin-1-yl)methyl)-3-(trifluoromethyl)phenyl)urea]",< 100
16,"CN1CCN(Cc2ccc(NC(=O)Nc3ccc(-c4cn(CCO)c5ncnc(N)c45)cc3F)cc2C(F)(F)F)CC1 [Example I-71, 1-(4-(4-amino-7-(2-hydroxyethyl)-7H-pyrrolo[2,3-d]pyrimidin-5-yl)-2-fluorophenyl)-3-(4-((4-methylpiperazin-1-yl)methyl)-3-(trifluoromethyl)phenyl)urea]",< 100
17,"CN1CCN(Cc2ccc(NC(=O)Nc3ccc(-c4cn(C5CCC5)c5ncnc(N)c45)cc3F)cc2C(F)(F)F)CC1 [Example I-19, 1-(4-(4-amino-7-cyclobutyl-7H-pyrrolo[2,3-d]pyrimidin-5-yl)-2-fluorophenyl)-3-(4-((4-methylpiperazin-1-yl)methyl)-3-(trifluoromethyl)phenyl)urea]",100 to 500
18,"CN1CCN(Cc2ccc(NC(=O)Nc3ncc(-c4cn(C5CC5)c5ncnc(N)c45)cc3F)cc2C(F)(F)F)CC1 [Example I-67, 1-(5-(4-amino-7-cyclopropyl-7H-pyrrolo[2,3-d]pyrimidin-5-yl)-3-fluoropyridin-2-yl)-3-(4-((4-methylpiperazin-1-yl)methyl)-3-(trifluoromethyl)phenyl)urea]",100 to 500
19,"CN1CC2CC1CN2Cc1ccc(NC(=O)Nc2ccc(-c3cn(C4CC4)c4ncnc(N)c34)cc2F)cc1C(F)(F)F (stereo not shown) [Example I-64, 1-(4-(4-amino-7-cyclopropyl-7H-pyrrolo[2,3-d]pyrimidin-5-yl)-2-fluorophenyl)-3-(4-((5-methyl-2,5-diazabicyclo[2.2.1]heptan-2-yl)methyl)-3-(trifluoromethyl)phenyl)urea]",< 100
20,"CN1CCN(Cc2ccc(NC(=O)Nc3ccc(-c4nn(C5CC5)c5ncnc(N)c45)cn3)cc2C(F)(F)F)CC1 [Example I-30, 1-(5-(4-amino-1-cyclopropyl-1H-pyrazolo[3,4-d]pyrimidin-3-yl)pyridin-2-yl)-3-(4-((4-methylpiperazin-1-yl)methyl)-3-(trifluoromethyl)phenyl)urea]",100 to 500
21,"Cc1cc(NC(=O)Nc2ccc(-c3nn(C(C)C)c4ncnc(N)c34)cc2)ccc1N1CCOCC1 [Example I-22, 1-(4-(4-amino-1-isopropyl-1H-pyrazolo[3,4-d]pyrimidin-3-yl)phenyl)-3-(3-methyl-4-morpholinophenyl)urea]",100 to 500
22,"CN1CCN(Cc2ccc(NC(=O)Nc3ccc(-c4cn(C5CN(C)C5)c5ncnc(N)c45)cc3F)cc2C(F)(F)F)CC1 [Example I-104, 1-(4-(4-amino-7-(1-methylazetidin-3-yl)-7H-pyrrolo[2,3-d]pyrimidin-5-yl)-2-fluorophenyl)-3-(4-((4-methylpiperazin-1-yl)methyl)-3-(trifluoromethyl)phenyl)urea]",< 100

# Reference: patent publication US20240317758A1 (Halia Therapeutics, Inc., priority 2021, published 2024)
